Read-outs that look alike come from different tables or passages of the source.
Key:
[1] = Acute pain tail-flick assay, side-by-side mice studies; assay type: in vivo; details: side-by-side comparison, similar to opioids
[2] = target: CB1 receptors (Homo sapiens, UniProt P21554); details: mediated through CB1 receptors; cited from earlier work
[3] = assay type: in vivo, humans
From the text: (§1) Nevertheless, CMX-020 may produce adverse side effects when given at improper dosages. Methods of administrating an effective amount of the compound CMX-020 to produce an analgesia effective, while still being within a safe and tolerable dose, is both necessary and desirable.

[4] = Nonclinical studies of analgesia compared with morphine; assay type: in vivo
[5] = assay type: in vivo, human
From the text: Tachycardia was the most common adverse event (AE) in this study, reported in 5 of 48 subjects (10%) following active treatment and in no subjects following placebo; all of the treatment-emergent AEs (TEAEs) of tachycardia were deemed related to study treatment.
The Toxicity Grading Scale for Healthy Adult and Adolescent Volunteers Enrolled in Preventative Vaccine Clinical Trials criteria for tachycardia are defined as follows: […]
Severe (Grade 3): >130 bpm
In this study, tachycardia was dose limiting at a level >130 bpm.

[6] = Preclinical animal models of pain; assay type: in vivo; details: acute pain, visceral pain, fibromyalgia, diabetic peripheral neuropathy, sciatica, chemotherapy induced pain, osteoarthritis models
From the text: as §1

[7] = Subject 0048, 0.24 mg/kg 15-minute infusion
[8] = Subject 0057, 0.32 mg/kg 30-minute infusion
[9] = following active treatment, all dose levels

CB1 receptors, sequence (P21554 whole entry): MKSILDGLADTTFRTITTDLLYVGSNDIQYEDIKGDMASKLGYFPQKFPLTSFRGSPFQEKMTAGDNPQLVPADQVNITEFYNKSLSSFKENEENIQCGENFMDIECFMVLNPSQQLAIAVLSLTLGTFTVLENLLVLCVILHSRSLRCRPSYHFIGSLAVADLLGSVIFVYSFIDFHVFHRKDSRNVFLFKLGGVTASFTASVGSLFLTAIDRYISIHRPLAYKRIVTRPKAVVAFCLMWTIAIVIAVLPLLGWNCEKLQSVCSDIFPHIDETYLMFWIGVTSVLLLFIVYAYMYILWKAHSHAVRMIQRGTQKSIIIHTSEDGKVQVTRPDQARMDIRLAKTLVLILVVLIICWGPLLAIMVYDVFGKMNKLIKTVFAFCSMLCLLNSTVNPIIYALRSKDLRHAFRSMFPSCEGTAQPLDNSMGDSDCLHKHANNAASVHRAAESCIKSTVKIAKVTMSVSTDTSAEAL

## CCCCC/C=C\C/C=C\C/C=C\C/C=C\CCCC(=O)Nc1ccc(O)cc1 [AM404, reference compound]
[1]
  Analgesic efficacy in the acute pain tail-flick assay: highest level of analgesic efficacy
[2]
  Anticonvulsant action: anticonvulsant action mediated through CB1 receptors

## CCCCCC(=O)N(CCC=C=CCCCC=C=CCC=C=CCCCC(=O)NC1CC1)C(C)C [CMX-020]
[1]
  Analgesic efficacy in the acute pain tail-flick assay: highest level of analgesic efficacy
[3]; humans, sciatic pain
  Efficacy in proof-of-concept trial in sciatic pain: indicated efficacy
[3]; intravenous and oral formulations, several dose levels
  Safety when administered to humans: demonstrated the safety
[4]
  Analgesia compared with morphine: analgesia equivalent to that achieved by morphine
[5]; 0.32 mg/kg and 0.24 mg/kg 15-minute infusion groups compared with the other dose levels and placebo
  Number of elevated heart rate assessed as clinically significant: higher number
[5]; 0.32 mg/kg and 0.24 mg/kg 15 minutes infusion and 0.32 mg/kg 30 minute infusion
  Doses at which tachycardia was reported: only at the three highest doses
[5]; Subject 0033, 0.32 mg/kg 15-minute infusion
  Time of peak heart rate following the start of treatment administration: 16 min
[5]; Subject 0033, 0.32 mg/kg 15-minute infusion, 15 minutes following the peak heart rate
  Heart rate after decrease: 113 bpm
[5]; Subject 0033, Cohort 5, 0.32 mg/kg 15-minute infusion
  Peak Pulse: 138 bpm
[5]; Subject 0036, 0.32 mg/kg 15-minute infusion
  Time of peak heart rate following the start of dose administration: 16 min
[5]; Subject 0036, 0.32 mg/kg 15-minute infusion, 15 minutes following the start of treatment administration (so in the source)
  Heart rate after decrease: 101 bpm
[5]; Subject 0036, Cohort 5, 0.32 mg/kg 15-minute infusion
  Peak Pulse: 110 bpm
[5]; Subject 0045, 0.24 mg/kg 15-minute infusion
  Time of elevated heart rate following the start of dose administration: 11 min
[5]; Subject 0045, 0.24 mg/kg 15-minute infusion, 10 minutes following the start of treatment administration (so in the source)
  Heart rate after decrease: 109 bpm
[5]; Subject 0045, Cohort 6, 0.24 mg/kg 15-minute infusion (discontinued, total dose received 0.156 mg/kg)
  Peak Pulse: 156 bpm
[5]; [7]
  Time of TEAE of tachycardia following start of treatment administration: 11 min
  Time of peak heart rate following start of treatment administration: 16 min
[5]; Subject 0048, 0.24 mg/kg 15-minute infusion, 15 minutes following the peak heart rate
  Heart rate after decrease: 103 bpm
[5]; Subject 0048, Cohort 6, 0.24 mg/kg 15-minute infusion
  Peak Pulse: 109 bpm
[5]; [8]
  Time of TEAE of tachycardia following start of treatment administration: 16 min
  Time of peak heart rate following start of treatment administration: 20 min
[5]; Subject 0057, 0.32 mg/kg 30-minute infusion, 20 minutes following the peak heart rate
  Heart rate after decrease: 97 bpm
[5]; Subject 0057, Cohort 8, 0.32 mg/kg 30-minute infusion
  Peak Pulse: 110 bpm
[5]; cohorts 5 and 6, 15-minute infusions
  Time of peak in elevated heart rate following the start of treatment administration: 11 to 16 min
[5]; cohorts 7 and 8, 30-minute infusions
  Time of peak in elevated heart rate: approximately 30 minutes
[5]; [9]
  Incidence of tachycardia (adverse event): 10%
  Subjects reporting tachycardia (adverse event): 5 of 48
[6]
  Pain response in animal models of pain: effectively reduce the pain response

— patent publication US20220387357A1, “Method of Dosing a Pain Therapeutic” (priority 2021, published 2022)
